Measured values: US20170298051A1, “ACTIVATOR OF ADIPONECTIN RECEPTOR” (THE UNIVERSITY OF TOKYO, priority 2013, published 2017)

How the values were obtained:
AdipoR1 [1] = molecular target: T1, AdipoR1 (Mus musculus, UniProt Q91VH1); assay: Measurement of AMPK phosphorylation ability (Assay 1), differentiated C2C12 cells, Western blotting; type: cell-based; details: 10 μM, 10 minutes
T1 construct: C2C12 cells (ATCC; CRL-1772, medium; host or cells: differentiated C2C12
T1 sequence (Q91VH1 1-375): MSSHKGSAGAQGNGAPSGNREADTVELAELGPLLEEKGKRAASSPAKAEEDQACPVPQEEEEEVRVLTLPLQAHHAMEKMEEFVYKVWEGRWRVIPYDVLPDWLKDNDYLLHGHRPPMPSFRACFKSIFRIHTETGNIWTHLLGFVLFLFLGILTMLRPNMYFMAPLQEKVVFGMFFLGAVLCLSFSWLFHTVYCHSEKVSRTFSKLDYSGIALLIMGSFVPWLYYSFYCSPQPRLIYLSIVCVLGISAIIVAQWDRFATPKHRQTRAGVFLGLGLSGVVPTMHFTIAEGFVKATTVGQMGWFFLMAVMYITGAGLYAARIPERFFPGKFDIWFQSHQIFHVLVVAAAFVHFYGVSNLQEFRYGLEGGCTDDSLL
Description: The AMPK phosphorylation ability of the respective compounds according to the present invention was measured by using differentiated C2C12 cells or HEK 293T cells.
C2C12 cells (ATCC; CRL-1772, medium; DMEM, 10% FBS) were cultured in a 12- or 24-well plate until they reached 100% confluency (37° C., 5% CO2).
The medium was changed to 2.5% Horse Serum (HS) and differentiation was started. The medium (DMEM, 2.5% HS) was replaced every three days.
After starvation, a test compound listed in Table 12 (concentration: 10 μM) was added thereto, and after 10 minutes, the medium was discarded and the plate was frozen with liquid nitrogen.
To the 12- or 24-well cell plate which had been frozen was added 100 or 150 μL of Cell lysis buffer pH 7.4 (50 mM HEPES (pH 7.4), 2 mM sodium orthovanadate, 10 mM sodium pyrophosphate, 10 mM NaF, 2 mM EDTA, 2 mM EGTA, 0.1% (v/v) NP-40, 0.2 mM PMSF), and the cells were scraped off with a cell scraper, suspended and transferred into a micro centrifugal tube. And then, the cells were ultrasonically crushed (1 second×3 times) with a sonicator. Centrifugation was performed at 4° C. at 15,000 rpm for 15 minutes, and the supernatant was recovered into a new tube.
To 100 μL of the supernatant was added 25 μL of 5× sample buffer (280 mM Tris-HCl (pH 6.9), 40% glycerol, 10% (3-mercaptoethanol, 13% SDS, a small amount of bromophenol blue) and mixed together. The rest of the supernatant was used for protein quantification, and the protein concentrations were uniformed by adding 1× sample buffer depending on the concentration of each sample.
An electrophoresis chamber was filled with 1× SDS buffer (25 mM Tris-HCl, 250 mM glycine, 0.1% SDS), and the sample was applied to a well of polyacrylamide gel. Electrophoresis was performed until the bromophenol blue in the sample reached to the bottom of the gel.
A filter paper was soaked in 1× Transfer buffer sufficiently, above which the PVDF membrane and the gel after electrophoresis were stacked in this order, and thereabove a filter paper which had been soaked in 1× Transfer buffer sufficiently was further stacked, from which an air was removed and the resultant was set in semi-dry type transfer apparatus and transferred (7V, 35 minutes).
An unnecessary portion of the blotted membrane was cutoff, and the rest was immediately soaked in blocking buffer (5% skimmed milk in Rinse buffer), and shaken at room temperature at 40 rpm for 3 hours.
After blocking, the membrane was transferred into Rinse buffer, and washed at room temperature for 10 minutes while shaking. The membrane was soaked in a primary antibody solution (AMPK alpha Antibody (Cell signaling; #2532) 1/1,000 in Rinse buffer, Phospho-AMPK alpha (Thr172) (40H9) antibody (Cell signaling; #2535) 1/1,000 in Rinse buffer), and shaken at 4° C. at 40 rpm overnight.
The membrane was soaked in a secondary antibody solution (goat anti-rabbit IgG-HRP Antibody (Santa Cruz; sc-2030) 1/2,000 in Rinse buffer), and shaken at room temperature at 40 rpm for 1 hour.
After the membrane was washed for 45 minutes in the same way as after the primary antibody reaction, the membrane was soaked in a chemiluminescent reaction solution (ECL Western Blotting Detection Reagents, GE Healthcare) for about 1 minute. An excess of the reaction solution was removed, and then the membranes were arranged on a transparent film and sandwiched with it, with which an X-ray film was exposed in a darkroom (for about several seconds to 60 seconds) to develop the film.
The X-ray film was scanned to take the image, for which the band was measured by using the image analysis software “Image J” to determine the respective amounts of pAMPK and AMPK.

AdipoR1 [2] = assay: Measurement of AMPK phosphorylation ability (Assay 2), C2C12 cells with unrelated or AdipoR1 siRNA; type: cell-based, Mouse
Description: C2C12 cells (ATCC; CRL-1772, medium; DMEM, 10% Fetal Bovine Serum (FBS)) were cultured in a 12- or 24-well plate until they reached 100% confluency (37° C., 5% CO2). The medium was changed to DMEM, 2.5% Horse Serum (HS) and differentiation was started. The medium (DMEM, 2.5% HS) was replaced two days after the start of differentiation. The medium (DMEM, 2.5% HS) was further replaced two days after that.
On the next day following the replacement of the medium, first, 1 μL of Lipofectamine RNAiMAX and 50 μL of OPTI-MEM were mixed, and then 5 μM siRNA (sense siRNA sequence: […]tt (SEQ ID NO: 1)) and 50 μL of OPTI-MEM were mixed and the resultants were left to stand at room temperature for 5 minutes. And then, the 1 μL Lipofectamine RNAiMAX/50 μL OPTI-MEM and the 5 μM siRNA/50 μL OPTI-MEM were mixed, and the resultant was left to stand at room temperature for 10 minutes, which was added to the cells.
After 5 minutes, the medium (DMEM, 2.5 HS) was replaced, and after starvation on the next day, a test compound listed in Table 12 was added thereto. After 10 minutes, the medium was discarded and the plate was frozen with liquid nitrogen.
The respective amounts of pAMPK and AMPK were determined in the same way as in the above Assay 1.

Lepr−/− (db/db) mice = assay: Anti-diabetic effects in db/db mice; type: in vivo
Description: Mice were 6-10 week of age at the time of the experiment. They were housed in cages and maintained on a 12 hr light-dark cycle.
Male Lepr^−/− (aged 6-10 week) were purchased from Jackson Laboratory. When the mice in the same genotype received different treatments, they were randomly assigned to treatment groups.
Plasma glucose levels were determined by using a glucose B-test (Wako Pure Chemical Industries). Plasma insulin was measured with an insulin immunoassay (Shibayagi). Plasma NEFAs (Wako Pure Chemical Industries) were assayed by enzymatic methods.
The oral glucose tolerance test (OGTT) and insulin tolerance test (ITT) were conducted as previously described^a,b with slight modifications. The areas of the glucose and insulin curves were calculated by multiplying the cumulative mean height of the glucose values (1 mg/ml=1 cm) and insulin values (1 ng/ml=1 cm), respectively, by time (60 min=1 cm)^c,a. The insulin resistance index was calculated from the product of the areas of glucose and insulin×10^−2 in the glucose tolerance test. The results are expressed as the percentage of the value respect to control littermates.

pAMPK/AMPK (%) (AdipoR1 [1]): 84.33%
Compound: O=C(COc1ccc(C(=O)c2ccccc2)cc1)NC1CCN(Cc2ccccc2)CC1 [Compound 73, 2-(4-benzoyl-phenoxy)-N-(1-benzylpiperidin-4-yl)acetamide]
pAMPK/AMPK (ratio) siRNA, AdipoR1 siRNA (AdipoR1 [2]; AdipoR1 siRNA): 2.68 ratio
pAMPK/AMPK (ratio) siRNA, unrelated siRNA (AdipoR1 [2]; unrelated siRNA): 4.75 ratio
plasma glucose level (Lepr−/− (db/db) mice; oral 50 mg/kg body weight): decreased plasma glucose level
glucose intolerance, insulin resistance and dyslipidemia (Lepr−/− (db/db) mice; oral, 2 weeks): significantly ameliorated
